Format in all cases: physicochemical
Data set [1] in a line: Dissolution test against cold water at 10° C. The following applies: for Time required for dissolution, No. 1 / Time required for dissolution, No. 2 / Time required for dissolution, No. 3 / Time required for dissolution, No. 4 / Time required for dissolution, No. 5 / Time required for dissolution, Average: 20 ml water 10° C., about 300 rpm, 0.5 g trehalose or 0.2 g maltose; for Time required for dissolution, Average: average of 5; for Dissolution in cold water in comparison with controls: cold water 10° C. On the procedure: A dissolution test against cold water at 10° C. was carried out using the porous anhydrous crystalline trehalose prepared by treating at 70° C. for 60 min in Example 1, the porous anhydrous crystalline maltose prepared by the method in Example 3, and the porous hydrous crystalline maltose prepared by the method in Example 5, as samples. The results were compared with those of the controls, anhydrous crystalline trehalose, hydrous crystalline trehalose, and hydrous crystalline maltose.
Twenty milliliters of 10° C.-cold water was placed in a test tube with an internal diameter of 18 mm, and then stirred using a stirring bar. A crystalline saccharide sample was put into the test tube, and the time required for the complete dissolution (for the disappearance of precipitate particles) was measured. The amount of samples was set to be 0.5 g in the case of trehalose and to be 0.2 g in the case of maltose, and the stirring rate was set to be about 300 rpm in any case. The measurement of time for dissolution under the above conditions was carried out 5-times at each sample.

Data set [2] is described as follows: Oil-keeping ability with salad oil. The settings on record: for Oil-keeping ability: (5 g salad oil / amount of added saccharide) x 100. Further details: key to Oil-keeping ability: (5 g salad oil / g saccharide added at endpoint) x 100. On the procedure: The oil-keeping ability of each crystalline saccharide was measured using the porous anhydrous crystalline trehalose prepared by treating at 70° C. for 60 min in Example 1, the control hydrous crystalline trehalose, and the control anhydrous crystalline trehalose as crystalline trehalose samples; and the porous anhydrous crystalline maltose prepared by the method in Example 3, the control hydrous crystalline β-maltose, and the control anhydrous crystalline α-maltose, and the control anhydrous crystalline β-maltose as crystalline maltose samples, and the results were compared.
The measurement of the oil-keeping ability of the crystalline saccharide was carried out according to the method disclosed in Japanese Patent Kokai No. 31,650/84. Five grams of “NISSHIN SALAD OIL”, a salad oil commercialized by Nisshin OiliO Group, Ltd., Tokyo, Japan, was placed in a 50-ml plastic container, and then gradually admixed with each powdery crystalline saccharide with stirring. […] When the amount of the mixed saccharide is further increased, the agglomerate increase in solidity and then loosen. The point that the agglomerate is loosened is estimated to be the endpoint and the oil-keeping ability was calculated using the following formula. Oil-Keeping Ability =(The amount of salad oil(5 g)/the amount of added PCS*)×100 *: Powdery crystalline saccharide tm Formula 1

The nature of data set [3]: Pore size distribution by the mercury filling method. The settings on record: for Median pore diameter: control maltose values are from space between particles, not pores.
Data set [4] in a line: Specific surface area by nitrogen adsorption isotherms (BET). The following applies: for Specific surface area: nitrogen adsorption isotherms, BET. Here is the method: Specific surface area of the porous anhydrous crystalline trehalose was measured by the nitrogen adsorption isotherms using “MODEL ASAP-2400”, a specific surface area/pore size distribution analyzer commercialized by Micromeritics, Georgia, USA. […] The result was analyzed by the BET (Brunnauer, Emmet, and Teller) method. The commercial anhydrous crystalline trehalose, a reagent grade, commercialized by Hayashibara Biochemical Laboratories Inc., Okayama, Japan, was used as a control. […] Further, those pore size distribution charts are in FIG. 19. […] The results of the analysis on the specific surface area and the pore size distribution are summarized in Table 7, and the pore size distribution chart was in FIG. 24. As a control, “MALTOSE OM”, a hydrous crystalline maltose product with maltose purity of 98% or higher, produced by Hayashibara Co., Ltd., Okayama, Japan, was used.

Data set [5] can be described thus: Crystal moisture content (Karl Fischer) on moisture absorption and drying. Here is the method: Hydrous crystalline saccharides were prepared from the respective porous anhydrous crystalline saccharide using the porous anhydrous crystalline trehalose, obtained by treating at 70° C. for 60 min in Example 1, and the porous anhydrous crystalline maltose, obtained by treating at 70° C. for 480 min in Example 3, as materials. About 50 g of the porous anhydrous crystalline saccharide and about 150 ml of deionized water were placed in respective container. Then, the both open containers were placed in the same closed vessel and leaved to stand at 27° C. for two days. By the treatment, the anhydrous crystalline saccharide was allowed to absorb moisture and converted into hydrous crystal. The resulting hydrous crystal was dried in a drying machine at 50° C. for one hour to remove excess moisture. The moisture contents of the porous anhydrous crystalline trehalose and the porous anhydrous crystalline maltose before and after the treatment to absorb moisture and after drying are in Table 6. The moisture content of crystals was measured by the conventional Karl Fischer's method.

The mark [6] stands for this setting: listed as Porous anhydrous crystalline β-maltose (Present invention).
The mark [7] stands for this setting: listed as porous anhydrous crystalline maltose.
Setting [8] is: listed as Porous hydrous crystalline β-maltose (Present invention).
[9] abbreviates: listed as porous hydrous crystalline maltose.

Read-outs that look alike come from different tables or passages of the source.

With `OC[C@H]1O[C@H](O[C@H]2[C@H](O)[C@@H](O)C(O)O[C@@H]2CO)[C@H](O)[C@@H](O)[C@@H]1O` (mixture of isomers) [Anhydrous crystalline α-maltose (Control)] [reference compound], in data set [1], the “Time required for dissolution, No. 1” value came to 37 s; the “Time required for dissolution, No. 2” value worked out at 35 s; the “Time required for dissolution, No. 3” value was 39 s; the “Time required for dissolution, No. 4” value turned out to be 38 s. Also, in data set [1], the “Time required for dissolution, No. 5” value is 36 s and the “Time required for dissolution, Average” value came to 37 s. The Oil-keeping ability in data set [2] is reported as 41.7. Besides, in data set [3], the Intrusion volume result is listed as “(No pore)” and the Median pore diameter was determined as 13.00 μm. The compound also came in with a Specific surface area in data set [4] of 0.48 m^2/g. In addition, the Specific surface area in data set [4] (listed as anhydrous crystalline α-maltose) is on record as 0.48 m^2/g.

In data set [2], `OC[C@H]1O[C@H](O[C@H]2[C@H](O)[C@@H](O)C(O)O[C@@H]2CO)[C@H](O)[C@@H](O)[C@@H]1O` (mixture of isomers) [Anhydrous crystalline β-maltose (Control)] [reference compound] displayed an Oil-keeping ability of 40. Moreover, in data set [3], the Intrusion volume result is on record as “(No pore)” and the Median pore diameter came out at 14.70 μm. The Specific surface area in data set [4] is given as 0.82 m^2/g. The same compound gave a Specific surface area in data set [4] (listed as anhydrous crystalline β-maltose) of 0.82 m^2/g.

As to `OC[C@H]1O[C@H](O[C@H]2[C@H](O)[C@@H](O)C(O)O[C@@H]2CO)[C@H](O)[C@@H](O)[C@@H]1O` (mixture of isomers) [Hydrous crystalline β-maltose (Control), maltose], in data set [1], the “Time required for dissolution, No. 1” value was determined as 118 s; the “Time required for dissolution, No. 2” value turned out to be 113 s; the “Time required for dissolution, No. 3” value amounted to 114 s; the “Time required for dissolution, No. 4” value came to 119 s. Moreover, in data set [1], the “Time required for dissolution, No. 5” value amounted to 116 s and the “Time required for dissolution, Average” value amounted to 116 s. This compound also returned an Oil-keeping ability in data set [2] (listed as Hydrous crystalline maltose (Control)) of 45.5. In addition, in data set [3], the Intrusion volume entry is reported as “(No pore)” and the Median pore diameter is reported as 11.20 μm. Further, the Specific surface area in data set [4] is given as 0.46 m^2/g. In data set [4] (listed as control hydrous crystalline β-maltose), the Specific surface area is reported as 0.46 m^2/g. Besides, the Specific surface area in data set [4] (listed as hydrous crystalline β-maltose) was 0.46 m^2/g.

Consider `OC[C@H]1O[C@H](O[C@H]2[C@H](O)[C@@H](O)C(O)O[C@@H]2CO)[C@H](O)[C@@H](O)[C@@H]1O` (mixture of isomers) [Porous anhydrous crystalline maltose, maltose], for which, in data set [1] (setting [6]), the “Time required for dissolution, No. 1” value worked out at 30 s; the “Time required for dissolution, No. 2” value amounted to 31 s; the “Time required for dissolution, No. 3” value was determined as 33 s; the “Time required for dissolution, No. 4” value is 29 s. Also, in data set [1] (setting [6]), the “Time required for dissolution, No. 5” value was found to be 32 s and the “Time required for dissolution, Average” value worked out at 31 s. The “Dissolution in cold water in comparison with controls” value in data set [1] was “rapidly dissolved in cold water”. In data set [2] (setting [6]), this compound returned an Oil-keeping ability of 143. In data set [2] (listed as porous anhydrous crystalline β-maltose), this compound gave an Oil-keeping ability of 143. Besides, the “Oil-keeping ability relative to control” value in data set [2] (compared with control crystalline saccharide) is listed as “about 3 folds”. Also, in data set [3], the Intrusion volume amounted to 1.05 mL/g, the “Pore diameter of clear peak in pore size distribution chart” value is “less than 5 μm” and the Median pore diameter stood at 1.26 μm. The same compound registered an Intrusion volume in data set [3] (setting [7]) of 1.05 mL/g. Further, the Specific surface area in data set [4] is recorded as 3.39 m^2/g. For the same compound, in data set [4] (setting [7]), the Specific surface area is 3.39 m^2/g. For the same compound, in data set [5] (after moisture absorption and drying at 50° C. for one hour), the “Crystal moisture content, after drying” value is given as 5.14 %, w/w. Besides, the “Crystal moisture content, before treatment” value in data set [5] (before moisture absorption) is on record as 0.32 %, w/w. Further, the “Crystal moisture content, after treatment” value in data set [5] (closed vessel with water, 27° C., two days) is 7.35 %, w/w.

As for `OC[C@H]1O[C@H](O[C@H]2[C@H](O)[C@@H](O)C(O)O[C@@H]2CO)[C@H](O)[C@@H](O)[C@@H]1O` (mixture of isomers) [Porous hydrous crystalline maltose, maltose], in data set [1] (setting [8]), the “Time required for dissolution, No. 1” value turned out to be 67 s; the “Time required for dissolution, No. 2” value is 66 s; the “Time required for dissolution, No. 3” value stood at 64 s; the “Time required for dissolution, No. 4” value was found to be 68 s. In addition, in data set [1] (setting [8]), the “Time required for dissolution, No. 5” value turned out to be 65 s and the “Time required for dissolution, Average” value amounted to 66 s. Besides, in data set [1], the “Dissolution in cold water in comparison with controls” value is “rapidly dissolved in cold water”. Moreover, in data set [3], the Intrusion volume is 0.77 mL/g, the “Pore diameter of clear peak in pore size distribution chart” value is given as “less than 5 μm” and the Median pore diameter was found to be 2.82 μm. In data set [3] (setting [9]), this compound yielded an Intrusion volume of 0.77 mL/g. In addition, the “Specific surface area relative to control crystalline saccharide” value in data set [4] (compared with control(s)) is “about 3 folds”. In data set [4], this compound had a Specific surface area of 1.39 m^2/g. In data set [4] (setting [9]), this compound came in with a Specific surface area of 1.39 m^2/g.

As for `OC[C@H]1O[C@H](O[C@H]2O[C@H](CO)[C@@H](O)[C@H](O)[C@H]2O)[C@H](O)[C@@H](O)[C@@H]1O` [Porous anhydrous crystalline trehalose (treated at 50° C. fo] [α-D-glucosyl α-D-glucoside], in data set [3], the Intrusion volume was found to be 0.22 mL/g, the Mode pore diameter came out at 0.29 μm, the “Remarks (pores)” value is “Having clear pores” and the Median pore diameter turned out to be 0.21 μm. This compound also showed a Specific surface area in data set [4] of 3.306 m^2/g.

For the origin of these results see US8188268B2, “Porous crystalline saccharide, its preparation and uses” (Kabushiki Kaisha Hayashibara Seibutsu Kagaku Kenkyujo, priority 2005, dated 2012).
